The structures appear in SMILES notation.

This assay concerns SHP mRNA in AML12 cells. The assay can be described thus: Relative expression of SHP mRNA in AML12 cells, EC50 (Experimental Example 4). In kind it is cell-based. The note with it: Mus musculus, 24 hrs. The method, then:
compounds of the present invention (for their chemical names and preparation methods, see the preparation example for each compound).
AML12 cells: mouse liver cells.
Control: compound 1-1B with a structure shown as follows, prepared according to a prior art method (for detailed information, see patent application WO2012087519A1).
Cells were digested with pancreatin and collected, and the concentration of the cells was determined; according to the counting result, the cells were resuspended to a density of 7.5×10^4 cells/mL; 1 mL of the cell suspension was inoculated in each well of a 12-well cell culture plate; and the culture plate was placed in an incubator and cultured under the conditions of 37° C. and 5% CO2 for 24 hrs.
The compound were diluted to 1000, 200, 8, 1.6, 0.32, 0.128, 0.0256 and 0.00512 μM with DMSO. Compound solutions of different concentrations obtained in the previous step were further diluted by 1000 times with media to obtain working solutions, and a medium containing 0.1% of DMSO was adopted as a control group. The cell culture plate was taken out from the incubator, the medium was removed, and the working solutions and the control medium were added. The culture plate was placed back into the incubator and cultured under the conditions of 37° C. and 5% CO2 for 24 hrs.
after treatment for 24 hrs, the cell culture plate was taken out from the incubator, and the medium was removed from the plate; the cells were rinsed three times with pre-cooled (4° C.) PBS (phosphate buffer solution); and 200 μL of pancreatin (preheated to 37° C.) was added to each well, and the plate was then gently shaken such that the pancreatin could evenly cover the plate bottom. The culture plate was then placed back into the incubator and incubated until the cells were separated from the plate bottom. 1 mL of medium was added to terminate digestion. […]

The EC50 is the concentration giving half of the maximal effect. Higher therefore signals a less potent agent. As to `O=C(O)c1ccc2nc(N3C[C@@H]4C[C@H]3C[C@H]4OCc3c(-c4c(Cl)cccc4Cl)noc3C3CC3)sc2c1` [Compound 2-1, 2-((1S, 4S, 5R)-5-((5-cyclopropyl-3-(2,6-dichlorophenyl)isoxazol-4-yl)methoxy)-2-azabicyclo[2.2.1]heptan-2-yl)benzo[d]thiazole-6-carboxylic acid], the EC50 was determined as 0.76 nM.

Values taken from patent publication US11352358B2, “FXR agonist” (XUANZHU BIOPHARMACEUTICAL CO., LTD., priority 2017, dated 2022).
